Measurements: publication PMC7845594, “Novel Immune Modulators Enhance Caenorhabditis elegans Resistance to Multiple Pathogens” (mSphere, 2021)

Columns and labels:
[1] = tested on: C. elegans host defense pathway genes; assay: nanoString expression of 115 immune- and stress-responsive genes; details: 100 μM LK molecules, 16 h
Procedure: The ratio of MIC to EC was determined for each of the 69 compounds.
Analysis of the expression of 115 immune- and stress-responsive genes using nanoString technology. Download Table S1, XLSX file, 0.02 MB.
For nanoString-based (nanoString Technologies, Seattle, WA) experiments, 2,000 wild-type, young adult worms were exposed to 100 μM LK molecules or DMSO control in S Basal medium in 6-well plates for 16 h. RNA purification and gene expression analysis were performed according to nanoString guidelines. Two biological replicates were tested for each condition.

[2] = tested on: glp-4(bn2) worms exposed to P. aeruginosa isolate PA2-61; assay: Liquid killing assay with cystic fibrosis isolate; assay type: in vivo, Caenorhabditis elegans; details: isolate PA2-61, serial 2-fold dilutions from 50 µM to 12.5 μM
Procedure: We also tested these strains against a P. aeruginosa isolate from a pediatric cystic fibrosis patient, P. aeruginosa PA2-61, that we previously characterized ([22]).
The minimum effective concentration was calculated from the lowest concentration that retained statistically significant rescue of glp-4(bn2) C. elegans, a temperature-sensitive sterile strain, from exposure to P. aeruginosa PA14. […] Compounds were added in serial 2-fold dilutions from 50 µM to 12.5 μM. *, P < 0.05; **, P < 0.01; ***, P < 0.001. P values were calculated using Student’s t test. At least six wells containing 20 worms each per condition per replicate were used for determination of liquid killing. EC values were calculated based on at least three biological replicates. Error bars represent the standard error of the mean.
Liquid killing of C. elegans was performed as previously described with some changes ([91]). In brief, an overnight culture of LB medium was inoculated with a single colony of Pseudomonas aeruginosa strain PA14. Then, 400 µl of culture was spread onto a 10-cm slow-kill agar plate ([91]) and grown for 24 h at 37°C, followed by 24 h at 25°C. Bacteria were scraped from the plate, resuspended in S Basal medium, and added to 384-well plates with small molecules dissolved in DMSO. Solution in wells contained a final concentration of 40% SK media, 59% S Basal medium, 1% DMSO, and small molecules. For all liquid-based killing assays, solvent control wells contained 1% DMSO. MgSO4 and CaCl2 (300 µM) and cholesterol (1.6 µg/ml) were added to aid in production of virulence factors. Worms were sorted into 384-well plates using a COPAS FlowSort (Union Biometrica, Holliston, MA), incubated at 25°C until the DMSO control was roughly 35 to 55% dead, washed four times using an EL406 microplate washer (BioTek, VT), and stained with 50 μl of Sytox Orange at 1 µM to fluorescently stain dead worms. Wells were imaged in bright-field and RFP channels using the BioTek Cytation5, followed by image analysis using the CellProfiler software package to calculate fraction of dead worms in each well. […]

SKN-1/Nrf pathway = assay: gst-4p::GFP reporter; assay type: in vivo, Caenorhabditis elegans; details: 100 μM in 1% DMSO, no pathogen
Source text: To test activation of these pathways, worms carrying GFP-based reporters for the SKN-1/Nrf, PMK-1/p38 MAPK, and DAF-16/FOXO pathways (gst-4p::GFP, irg-5p::GFP, and DAF-16::GFP, respectively) were exposed to each compound in S Basal medium in the absence of the pathogen.
FIG 4 A subset of LK molecules activates reporters for the SKN-1/Nrf2 or PMK-1/p38 MAPK pathways. […] Also present are DMSO and ethanol negative controls for LK compounds and juglone, respectively. The fluorescence intensity was normalized to that of DMSO. (B) Worms carrying an irg-5p::GFP reporter for PMK-1/p38 MAPK activity were incubated at 25, 50, or 100 μM in 1% DMSO. Positive and negative controls consisted of 100 μM RPW-24 in 1% DMSO and 1% DMSO alone. Fluorescence was measured at 24 h. For both panels, ∼50 worms were used per well, and at least three wells were used per condition for each biological replicate. Mean values from at least three biological replicates are shown. *, P < 0.05; **, P < 0.01; ***, P < 0.001 compared to the solvent control. P values were calculated using Student’s t test. Error bars represent the standard error of the mean.
Worms were washed three times prior to incubation with compounds or DMSO control and diluted in S Basal medium supplemented with E. coli OP50 (OD600 = 0.08) as a food source. The fluorescence fold increase for gst-4p::GPF was taken as the fluorescence of each well and was normalized to the well’s fluorescence at 0 h. irg-5p::GFP, hsp-16.1p::GFP, rpt-6p::GFP, and hsp-4::GFP fluorescence was quantified as the fluorescence/worm area. For gst-4p::GFP, 100 µM ethanol-solubilized juglone was used as a positive control. Ethanol was also tested at 1% (vol/vol) as a control. For irg-5p::GFP, RPW-24 (100 µM) was used as a positive control. For quantification of nuclear localization of GFP fusion reporters, worms were scored as either localization positive or localization negative. DAF-16::GFP worms were scored as localization positive if >5 nuclei within the worm had localized GFP. All worms were imaged at the L4-young adult stage. […]

[3] = tested on: P. aeruginosa strain PA14; assay: MIC assay (bacterial growth, no worms); assay type: cell-based, Pseudomonas aeruginosa
Procedure: For the first round of characterization, 69 novel small molecules previously selected on the basis of their ability to improve C. elegans survival during exposure to P. aeruginosa in liquid ([14]) were tested for the ability to interfere with bacterial growth. MICs were determined for each compound by growing P. aeruginosa strain PA14 in static culture in 384-well plates with serial 2-fold dilutions of compounds. No worms were used in these assays. Next, effective rescue concentrations (EC; defined as the minimum concentration that results in statistically significant survival, compared to dimethyl sulfoxide [DMSO]) ([15], [18]) were determined for each compound using the standard P. aeruginosa liquid killing assay. Sterile glp-4(bn2) worms were used in all liquid-based assays to limit artifacts (i.e., unlaid eggs will hatch and cause matricide).
Plates were allowed to grow for 24 h at 37°C without shaking. Growth was scored visually on the basis of turbidity. At least three biological replicates were performed.

Compound: CNC(=O)Oc1c(Br)cc2sc(=O)oc2c1Br [LK34]
- B0024.4 expression, induction [1]: 0.79 fold
- C02B4.2 nhr-17 expression, induction [1]: 1.60 fold
- C03G6.15 cyp-35A2 expression, induction [1]: 2.32 fold
- C06B3.3 cyp-35C1 expression, induction [1]: 2.40 fold
- C06B3.7 expression, induction [1]: 2.34 fold
- C07G3.2 irg-1 expression, induction [1]: 2.14 fold
- C12C8.1 hsp-70 expression, induction [1]: 2.02 fold
- C15F1.7 sod-1 expression, induction [1]: 2.23 fold
- C29F7.2 expression, induction [1]: 1.42 fold
- C31A11.5 oac-6 expression, induction [1]: 3.81 fold
- C32D5.12 expression, induction [1]: 2.84 fold
- C32H11.1 expression, induction [1]: 5.22 fold
- C32H11.3 expression, induction [1]: 4.04 fold
- C34G6.4 pgp-2 expression, induction [1]: 1.78 fold
- C37C3.10 expression, induction [1]: 2.56 fold
- C37H5.8 hsp-6 expression, induction [1]: 2.28 fold
- C49G7.5 irg-2 expression, induction [1]: 2.61 fold
- F08F8.5 numr-1 expression, induction [1]: 3.73 fold
- F08H9.4 expression, induction [1]: 2.08 fold
- F14F9.3 expression, induction [1]: 2.72 fold
- F22B5.4 expression, induction [1]: 0.86 fold
- F22H10.2 expression, induction [1]: 1.72 fold
- F26A3.4 expression, induction [1]: 1.09 fold
- F35E8.11 cdr-1 expression, induction [1]: 3.15 fold
- F35G2.4 phy-2 expression, induction [1]: 1.71 fold
- F37B12.2 gcs-1 expression, induction [1]: 4.32 fold
- F43E2.8 hsp-4 expression, induction [1]: 2.24 fold
- F44E5.5 expression, induction [1]: 1.49 fold
- F49F1.6 expression, induction [1]: 1.85 fold
- F49F1.7 expression, induction [1]: 3.64 fold
- F49H6.13 expression, induction [1]: 2.55 fold
- F54B8.4 expression, induction [1]: 1.78 fold
- F55G11.2 expression, induction [1]: 1.39 fold
- F59A7.1 clec-206 expression, induction [1]: 2.12 fold
- F59B10.4 expression, induction [1]: 1.89 fold
- H12D21.1 nspa-1 expression, induction [1]: 39.17 fold
- H23N18.1 ugt-13 expression, induction [1]: 2.95 fold
- H23N18.3 ugt-8 expression, induction [1]: 5.59 fold
- K05B2.4 expression, induction [1]: 3.62 fold
- K07C6.3 cyp-35B2 expression, induction [1]: 4.00 fold
- K07G6.4 cyp-35B1 expression, induction [1]: 2.31 fold
- K08F4.7 gst-4 expression, induction [1]: 9.69 fold
- K09A9.1 nipi-3 expression, induction [1]: 1.52 fold
- K09D9.2 cyp-35A3 expression, induction [1]: 3.13 fold
- K10D11.2 expression, induction [1]: 1.97 fold
- K10G4.3 expression, induction [1]: 2.74 fold
- R03D7.6 gst-5 expression, induction [1]: 9.49 fold
- R08H2.1 dhs-23 expression, induction [1]: 3.44 fold
- R10E8.3 expression, induction [1]: 2.60 fold
- T19D12.3 expression, induction [1]: 3.00 fold
- T19H12.1 ugt-9 expression, induction [1]: 2.48 fold
- T21E8.1 pgp-6 expression, induction [1]: 2.62 fold
- T22B7.3 expression, induction [1]: 1.84 fold
- T24C4.4 expression, induction [1]: 2.67 fold
- T24E12.5 expression, induction [1]: 4.33 fold
- T27E4.3 hsp-16.48 expression, induction [1]: 1.73 fold
- T27E4.8 hsp-16.1 expression, induction [1]: 1.82 fold
- T27F6.8 expression, induction [1]: 1.45 fold
- T28C12.4 expression, induction [1]: 1.59 fold
- W02D9.10 expression, induction [1]: 1.15 fold
- Y22D7AL.5 hsp-60 expression, induction [1]: 1.77 fold
- Y38E10A.15 nspe-7 expression, induction [1]: 2.14 fold
- Y46H3A.2 hsp-16.41 expression, induction [1]: 2.00 fold
- Y46H3A.3 hsp-16.2 expression, induction [1]: 1.72 fold
- Y56A3A.33 expression, induction [1]: 1.77 fold
- Y58A7A.5 expression, induction [1]: 3.10 fold
- ZC376.7 atfs-1 expression, induction [1]: 1.86 fold
- ZC443.6 ugt-16 expression, induction [1]: 2.76 fold
- ZK697.6 gst-21 expression, induction [1]: 2.66 fold
- Dose dependence of rescue in liquid killing [2]: dose-dependent rescue
- gst-4p::GFP induction (SKN-1/Nrf activation) (SKN-1/Nrf pathway): induced gst-4p::GFP
- MIC ([3]; Pseudomonas aeruginosa, PA14): > 522 µM
- MIC / EC ([3]; ratio of MIC to EC, P. aeruginosa PA14): > 56.1
